Measurements taken from PubChem BioAssay AID328 (DTP/NCI, 2004).
Toxic doses and inconclusive results are not listed. Rule for the calls: active = survival T/C of 150% or more; inactive = T/C below 125% in these data.

Test system: BDF1 mice, P388 leukemia ip, median survival T/C
Assay: NCI In Vivo Anticancer Drug Screen. Data for tumor model P388 Leukemia (intraperitoneal) in B6D2F1 (BDF1) mice
Conditions: endpoint: median survival time, higher = longer survival
Method in brief: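 T/C = treated-group survival ÷ vehicle-control survival; tumour transplanted into mice before dosing.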

[1] = dose: 50.0 mg/kg/injection, schedule: Q01DX009 (ip), vehicle: saline with Tween-80
[2] = dose: 100.0 mg/kg/injection, schedule: Q01DX009 (ip), vehicle: saline with Tween-80
[3] = dose: 200.0 mg/kg/injection, schedule: Q01DX009 (ip), vehicle: saline with Tween-80
[4] = dose: 100.0 mg/kg/injection, schedule: Q04DX003 (ip), vehicle: saline with Tween-80
[5] = dose: 200.0 mg/kg/injection, schedule: Q04DX003 (ip), vehicle: saline with Tween-80
[6] = dose: 400.0 mg/kg/injection, schedule: Q04DX003 (ip), vehicle: saline with Tween-80
[7] = dose: 25.0 mg/kg/injection, schedule: Q01DX009 (ip), vehicle: saline with Tween-80

Measured: T/C

CCC(=O)OC1CC2(C)C(=CC1=O)CCC1C2CCC2(C)C(OC(=O)CC)CCC12 (stereo unspecified)
inactive: dose: 100.0 mg/kg/injection, schedule: Q01DX001 (ip), vehicle: Klucel (hydroxypropylcellulose) (HPC) 90 % of control | dose: 100.0 mg/kg/injection, schedule: Q01DX009 (ip), vehicle: Klucel (hydroxypropylcellulose) (HPC) 104 % of control | dose: 100.0 mg/kg/injection, schedule: Q04DX003 (ip), vehicle: Klucel (hydroxypropylcellulose) (HPC) 108 % of control | dose: 200.0 mg/kg/injection, schedule: Q01DX001 (ip), vehicle: Klucel (hydroxypropylcellulose) (HPC) 95 % of control | dose: 200.0 mg/kg/injection, schedule: Q01DX009 (ip), vehicle: Klucel (hydroxypropylcellulose) (HPC) 109 % of control | dose: 200.0 mg/kg/injection, schedule: Q04DX003 (ip), vehicle: Klucel (hydroxypropylcellulose) (HPC) 100 % of control | dose: 400.0 mg/kg/injection, schedule: Q01DX001 (ip), vehicle: Klucel (hydroxypropylcellulose) (HPC) 100 % of control | dose: 400.0 mg/kg/injection, schedule: Q01DX009 (ip), vehicle: Klucel (hydroxypropylcellulose) (HPC) 109 % of control | dose: 400.0 mg/kg/injection, schedule: Q04DX003 (ip), vehicle: Klucel (hydroxypropylcellulose) (HPC) 95 % of control

C=C(CC(=O)O)C(=O)O (tested in a mixture with another compound)
inactive: dose: 44.0 mg/kg/injection, schedule: Q01DX009 (ip), vehicle: saline 120 % of control

O=C1C(CCO)SC(=S)N1c1ccccc1 (stereo unspecified)
inactive: [1] 106 % of control | [2] 103 % of control | [3] 102 % of control

CN(C)CCC12CC(=O)CCC1C=Cc1ccc(O)c(O)c12 (stereo unspecified)
inactive: dose: 25.0 mg/kg/injection, schedule: Q01DX009 (ip), vehicle: saline 100 % of control | dose: 50.0 mg/kg/injection, schedule: Q01DX009 (ip), vehicle: saline 95 % of control | dose: 100.0 mg/kg/injection, schedule: Q01DX009 (ip), vehicle: saline 91 % of control

CCCCC(CC)COC(=O)CCC(CCC(=O)OCC(CC)CCCC)C(=O)OCC(CC)CCCC (stereo unspecified)
inactive: [4] 90 % of control | [5] 118 % of control | [6] 95 % of control

COC(OC)c1[nH]c(=S)[nH]c(=O)c1Cc1cccc2ccccc12
inactive: [2] 111 % of control | [4] 100 % of control | [3] 92 % of control | [5] 91 % of control | dose: 400.0 mg/kg/injection, schedule: Q01DX009 (ip), vehicle: saline with Tween-80 88 % of control | [6] 87 % of control

CC(=O)CC(C)=O.CC(=O)CC(C)=O.Cc1c[nH]cn1.O=N[O-].[Co]
inactive: dose: 100.0 mg/kg/injection, schedule: Q04DX002 (ip), vehicle: saline with Tween-80 107 % of control | dose: 200.0 mg/kg/injection, schedule: Q04DX002 (ip), vehicle: saline with Tween-80 124 % of control

COC(=O)C(CSCc1ccccc1)NC(=O)CCNC(=O)OCc1ccccc1 (stereo unspecified)
inactive: dose: 1.56 mg/kg/injection, schedule: Q04DX003 (ip), vehicle: Klucel (hydroxypropylcellulose) (HPC) 100 % of control | dose: 3.13 mg/kg/injection, schedule: Q04DX003 (ip), vehicle: Klucel (hydroxypropylcellulose) (HPC) 104 % of control | dose: 6.25 mg/kg/injection, schedule: Q04DX003 (ip), vehicle: Klucel (hydroxypropylcellulose) (HPC) 113 % of control | dose: 12.5 mg/kg/injection, schedule: Q04DX003 (ip), vehicle: Klucel (hydroxypropylcellulose) (HPC) 104 % of control | dose: 12.5 mg/kg/injection, schedule: Q04DX003 (ip), vehicle: saline with Tween-80 93 % of control | dose: 25.0 mg/kg/injection, schedule: Q04DX003 (ip), vehicle: saline with Tween-80 102 % of control | dose: 50.0 mg/kg/injection, schedule: Q04DX003 (ip), vehicle: saline with Tween-80 100 % of control | [4] 107 % of control | [5] 94 % of control | [6] 94 % of control

OC1(C2CCCCC2)C2CCCC1CCC2 (stereo unspecified)
inactive: dose: 12.5 mg/kg/injection, schedule: Q01DX009 (ip), vehicle: saline with Tween-80 104 % of control | [7] 95 % of control | [1] 109 % of control | dose: 100.0 mg/kg/injection, schedule: Q04DX003 (ip), vehicle: other 104 % of control | dose: 200.0 mg/kg/injection, schedule: Q04DX003 (ip), vehicle: other 109 % of control | dose: 400.0 mg/kg/injection, schedule: Q04DX003 (ip), vehicle: other 104 % of control

CC(C)(C)NC1=NCCO1
inactive: [7] 100 % of control | [1] 100 % of control | [2] 100 % of control
